# Source: ChEMBL document CHEMBL5726224, “Aminoester derivatives” (2017)
# Target: Muscarinic acetylcholine receptor M3 (Homo sapiens, UniProt P20309)
# Assay: The assay is carried out in 96-well polypropylene plates in a volume of 250 μl. […] The final assay concentration of DMSO is 0.5% (v/v). The plates are sealed and incubated for 2 h at room temperature on an orbital shaker (slow speed). Membranes are harvested onto 96-well unifilter GF/C filter plates pre-treated with 0.5% polyethyleneimine (v/v), using a filter manifold, washed four times with 200 μl of assay buffer. The plates are dried before addition of 50 μl of microscint-0, sealed then read in a Trilux Microbeta scintillation counter. IC50 values are determined from competition curves using a non-linear curve fitting program. Ki values are calculated from IC50 values by the Cheng and Prusoff equation.
# Chain of Muscarinic acetylcholine receptor M3 (P20309 whole entry): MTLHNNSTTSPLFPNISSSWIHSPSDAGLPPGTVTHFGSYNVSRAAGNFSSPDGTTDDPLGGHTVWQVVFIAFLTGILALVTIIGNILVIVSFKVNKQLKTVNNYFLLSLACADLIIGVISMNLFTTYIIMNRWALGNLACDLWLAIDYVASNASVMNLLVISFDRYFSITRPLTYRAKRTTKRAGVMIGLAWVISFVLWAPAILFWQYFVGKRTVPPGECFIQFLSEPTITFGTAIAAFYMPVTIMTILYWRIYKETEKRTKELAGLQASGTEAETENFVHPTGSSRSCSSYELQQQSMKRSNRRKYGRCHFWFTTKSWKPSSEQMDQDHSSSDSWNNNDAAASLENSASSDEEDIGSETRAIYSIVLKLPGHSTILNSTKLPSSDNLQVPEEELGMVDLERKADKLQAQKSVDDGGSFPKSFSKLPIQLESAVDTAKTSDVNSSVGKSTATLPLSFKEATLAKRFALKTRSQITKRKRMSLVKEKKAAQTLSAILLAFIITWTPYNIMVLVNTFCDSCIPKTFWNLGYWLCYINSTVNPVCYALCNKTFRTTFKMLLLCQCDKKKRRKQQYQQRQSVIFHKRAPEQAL
Ki,SMILES,IC50
,COc1ccc([C@H](Cc2c(Cl)c[n+]([O-])cc2Cl)OC(=O)c2ccc(CNC(CO)(C(=O)OC[C@@H]3CCN(C)C3)c3ccccc3)s2)cc1OC (stereo partly specified),< 1 nM
0.59 nM,COc1ccc([C@H](Cc2c(Cl)c[n+]([O-])cc2Cl)OC(=O)c2ccc(CNC(C(=O)OC[C@H]3CCN(C)C3)c3ccccc3)s2)cc1OC (stereo partly specified),
,COc1ccc([C@H](Cc2c(Cl)c[n+]([O-])cc2Cl)OC(=O)c2ccc(CNC(CO)(C(=O)OC[C@H]3CCN(C)C3)c3ccccc3)s2)cc1OC (stereo partly specified),< 1 nM

# Target: 3',5'-cyclic-AMP phosphodiesterase 4B (Homo sapiens, UniProt Q07343)
# Assay: HTRF Assay: PDE4B2 activity is detected using the LANCE Ultra cAMP homogeneous time resolved fluorescence resonance energy transfer (TR-FRET) assay from Perkin Elmer. The assay is based on the competition between the europium (Eu) chelate-labeled cAMP tracer and sample cAMP for binding sites on cAMP-specific monoclonal antibodies (mAb) labelled with the ULight¿ dye. The assay is carried out in 384-well low volume plates in a volume of 10 μl. Human recombinant PDE4B2 (80 pM) is incubated for 2 h with 3 nM cAMP in buffer containing 1×HBSS, 5 mM HEPES, 3 mM MgCl2, 0.1% BSA, pH 7.4 with or without test compounds. The enzymatic reactions are efficiently stopped by the addition of 500 μM IBMX present in the combined Stop/Detection buffer containing europium (Eu) chelate-labeled cAMP tracer and cAMP-specific monoclonal antibodies (mAb) labelled with the ULight¿ dye. […] IC50 values are determined from competition curves using a non-linear curve fitting program.
# Chain of 3',5'-cyclic-AMP phosphodiesterase 4B (Q07343 whole entry): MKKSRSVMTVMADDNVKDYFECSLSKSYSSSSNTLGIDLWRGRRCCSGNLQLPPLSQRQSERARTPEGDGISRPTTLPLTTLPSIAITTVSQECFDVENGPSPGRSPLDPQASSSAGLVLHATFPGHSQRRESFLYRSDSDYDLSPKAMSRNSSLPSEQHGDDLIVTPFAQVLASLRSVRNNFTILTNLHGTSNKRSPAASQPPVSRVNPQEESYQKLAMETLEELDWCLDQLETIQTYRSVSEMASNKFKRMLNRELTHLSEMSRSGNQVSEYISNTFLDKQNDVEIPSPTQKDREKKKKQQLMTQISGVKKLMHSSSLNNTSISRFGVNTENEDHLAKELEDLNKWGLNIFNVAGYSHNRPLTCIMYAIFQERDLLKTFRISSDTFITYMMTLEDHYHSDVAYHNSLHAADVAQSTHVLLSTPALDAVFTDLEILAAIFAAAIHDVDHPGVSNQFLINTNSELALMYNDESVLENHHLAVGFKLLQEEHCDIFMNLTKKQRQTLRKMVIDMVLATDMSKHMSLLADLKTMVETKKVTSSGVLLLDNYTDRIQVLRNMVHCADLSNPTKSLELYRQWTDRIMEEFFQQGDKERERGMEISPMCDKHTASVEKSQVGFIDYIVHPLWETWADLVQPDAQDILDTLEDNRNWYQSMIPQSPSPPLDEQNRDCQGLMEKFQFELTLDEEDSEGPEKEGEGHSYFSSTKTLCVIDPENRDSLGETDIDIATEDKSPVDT
row,IC50,SMILES
1,< 1 nM,CCOc1cc(C(Cc2c(Cl)c[n+]([O-])cc2Cl)OC(=O)c2ccc(CNC(C(=O)OCC3CCN(C)CC3)c3ccccc3)s2)ccc1OC (stereo unspecified)
2,< 1 nM,COc1ccc([C@H](Cc2c(Cl)c[n+]([O-])cc2Cl)OC(=O)c2ccc(CNC(C)(C(=O)OCC3CCN(C)CC3)c3ccccc3)s2)cc1OC (stereo partly specified)

# Continued, compound first:
row,SMILES,IC50
1,COc1ccc([C@H](Cc2c(Cl)c[n+]([O-])cc2Cl)OC(=O)c2ccc(CNC(C(=O)OC[C@H]3CCCN(C)C3)c3ccccc3)s2)cc1OC (stereo partly specified),< 1 nM
2,COc1ccc([C@H](Cc2c(Cl)c[n+]([O-])cc2Cl)OC(=O)c2ccc(CNC(C(=O)OCC3CCN(C)CC3)c3cccc(O)c3)s2)cc1OC (stereo partly specified),< 1 nM
3,COc1ccc([C@H](Cc2c(Cl)c[n+]([O-])cc2Cl)OC(=O)c2ccc(CNC(CO)(C(=O)OC[C@H]3CCN(C)C3)c3ccccc3)s2)cc1OC (stereo partly specified),< 1 nM
4,COc1ccc([C@H](Cc2c(Cl)c[n+]([O-])cc2Cl)OC(=O)c2ccc(CNC(C(=O)OCC3CCN(C)CC3)c3ccccc3F)s2)cc1OC (stereo partly specified),< 1 nM
5,COc1ccc([C@H](Cc2c(Cl)c[n+]([O-])cc2Cl)OC(=O)c2ccc(CNC(C(=O)OC[C@H]3CCCCN3C)c3ccccc3)s2)cc1OC (stereo partly specified),< 1 nM
6,COc1ccc(C(Cc2c(Cl)c[n+]([O-])cc2Cl)OC(=O)c2ccc(CNC(C(=O)OCC3CCN(C)CC3)c3ccccc3)s2)cc1OCC1CC1 (stereo unspecified),< 1 nM
